Molecular target: T1, FXR ligand binding domain (GST-FXR LBD fusion protein, human FXR aa 193-473) (Homo sapiens, UniProt Q96RI1)
T1 construct: fused on or other part: Glutathione-S-transferase (GST) fused N-terminally to the FXR LBD, used to capture the protein on glutathione SPA beads
T1 sequence (Q96RI1 211-486 limits assumed): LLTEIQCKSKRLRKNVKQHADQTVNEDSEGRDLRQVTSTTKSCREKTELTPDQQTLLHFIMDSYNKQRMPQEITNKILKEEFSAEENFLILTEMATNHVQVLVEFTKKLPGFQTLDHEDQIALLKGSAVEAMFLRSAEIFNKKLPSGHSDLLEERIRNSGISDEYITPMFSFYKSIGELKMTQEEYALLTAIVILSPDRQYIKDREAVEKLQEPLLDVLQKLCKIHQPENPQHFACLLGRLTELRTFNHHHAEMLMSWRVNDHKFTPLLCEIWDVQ
Test: Radioligand binding assay (scintillation proximity, radioligand displacement)
Details: 40 nM GST-FXR LBD on SPA beads, test compound 6×10^−9 M to 2.5×10^−5 M, read-out: h-IC50 Binding
Description: The following tests were carried out in order to determine the activity of the compounds of formula (I).
To accomplish this, the portions of the sequences encoding the FXR LBD were amplified by polymerase chain reaction (PCR) from a full-length clone by PCR and then subcloned into the plasmid vectors. The final clone was verified by DNA sequence analysis.
The induction, expression, and subsequent purification of GST-LBD fusion protein was performed in E. coli strain BL21(pLysS) cells by standard methods (Current Protocols in Molecular Biology, Wiley Press, ed. Ausubel et al.).
Radioligand Binding Assay
Binding of test substances to the FXR ligand binding domain was assessed in a radioligand displacement assay. The assay was performed in a buffer consisting of 50 mM Hepes, pH 7.4, 10 mM NaCl, 5 mM MgCl2, 0.01% CHAPS. For each reaction well in a 96-well plate, 40 nM of GST-FXR LBD fusion protein was bound to 10 μg glutathione yttrium silicate SPA beads (Pharmacia Amersham) in a final volume of 50 μl by shaking. A radioligand (e.g., 20 nM of 2,N-dicyclohexyl-2-[2-(2,4 dimethoxy-phenyl)-benzoimidazol-1-yl]-acetamide) and test compounds were added, and scintillation proximity counting was performed. All binding assays were performed in 96-well plates and the amount of bound ligand was measured on a Packard TopCount using OptiPlates (Packard).

| Structure (SMILES) | IC50 [nM] |
| --- | --- |
| O=C(O)C1(Oc2ccc(OCC(C3CCCCC3)n3c(-c4ccc(Cl)cc4)nc4cc(F)c(F)cc43)nc2)CC1 (single isomer, unassigned; (-)) [Example 51, (−)-1-(6-{2-[2-(4-Chloro-phenyl)-5,6-difluoro-benzoimidazol-1-yl]-2-cyclohexyl-ethoxy}-pyridin-3-yloxy)-cyclopropanecarboxylic acid] | 300 |
| Fc1cc2nc(-c3ccc(Cl)cc3)n(C(COc3ccc(-c4nnn[nH]4)cn3)C3CCCCC3)c2cc1F (single isomer, unassigned; (-)) [Example 63, (−)-2-(4-Chloro-phenyl)-1-{1-cyclohexyl-2-[5-(1H-tetrazol-5-yl)-pyridin-2-yloxy]-ethyl}-5,6-difluoro-1H-benzoimidazole] | 90 |
| O=C(O)c1ccc(COCC(C2CCCCC2)n2c(-c3ccc(Cl)cc3)nc3cc(F)c(F)cc32)c(F)c1 (single isomer, unassigned; (-)) [Example 65, (−)-4-{2-[2-(4-Chloro-phenyl)-5,6-difluoro-benzoimidazol-1-yl]-2-cyclohexyl-ethoxymethyl}-3-fluoro-benzoic] | 200 |
| O=C(O)c1ccc(COCC(C2CCCCC2)n2c(-c3ccc(Cl)cc3)nc3cc(F)c(F)cc32)cc1 (single isomer, unassigned; (-)) [Example 68, (−)-4-{2-[2-(4-Chloro-phenyl)-5,6-difluoro-benzoimidazol-1-yl]-2-cyclohexyl-ethoxymethyl}-benzoic acid] | 60 |
| Cc1cc(-c2nnn[nH]2)cc(C)c1OCC(C1CCCCC1)n1c(-c2ccc(Cl)cc2)nc2cc(F)c(F)cc21 (single isomer, unassigned; (-)) [Example 71, (−)-2-(4-Chloro-phenyl)-1-{1-cyclohexyl-2-[2,6-dimethyl-4-(1H-tetrazol-5-yl)-phenoxy]-ethyl}-5,6-difluoro-1H-benzoimidazole] | 60 |
| COc1ccc(-c2nc3cc(F)c(F)cc3n2C(COc2ccc(C(=O)O)cn2)C2CCCCC2)c(OC)n1 (single isomer, unassigned; (-)) [Example 75, (−)-6-{2-Cyclohexyl-2-[2-(2,6-dimethoxy-pyridin-3-yl)-5,6-difluoro-benzoimidazol-1-yl]-ethoxy}-nicotinic acid] | 90 |
| O=C(O)c1cc(F)c(OCC(C2CCCCC2)n2c(-c3ccc(Cl)cc3)nc3ccccc32)c(F)c1 (single isomer, unassigned; (-)) [Example 104, (−)-4-{2-[2-(4-Chloro-phenyl)-benzoimidazol-1-yl]-2-cyclohexyl-ethoxy}-3,5-difluoro-benzoic acid] | 50 |
| Cc1cc(C(=O)O)cc(C)c1OCC(C1CCCCC1)n1c(-c2ccc(Cl)cc2)nc2ccccc21 (single isomer, unassigned; (-)) [Example 106, (−)-4-{2-[2-(4-Chloro-phenyl)-benzoimidazol-1-yl]-2-cyclohexyl-ethoxy}-3,5-dimethyl-benzoic acid] | 100 |
| O=C(O)c1cc(F)c(OCC(C2CCCCC2)n2c(-c3ccc(Cl)cc3)nc3ccccc32)c(Cl)c1 (single isomer, unassigned; (-)) [Example 109, (−)-3-Chloro-4-{2-[2-(4-chloro-phenyl)-benzoimidazol-1-yl]-2-cyclohexyl-ethoxy}-5-fluoro-benzoic acid] | 30 |
| Cc1cc(-c2nnn[nH]2)cc(C)c1OCC(C1CCCCC1)n1c(-c2ccc(Cl)cc2)nc2ccccc21 (single isomer, unassigned; (-)) [Example 112, (−)-2-(4-Chloro-phenyl)-1-{1-cyclohexyl-2-[2,6-dimethyl-4-(1H-tetrazol-5-yl)-phenoxy]-ethyl}-1H-benzoimidazole] | 110 |
| O=C(O)C1(Oc2ccc(OCC(C3CCCCC3)n3c(-c4ccc(Cl)cc4)nc4cc(F)c(F)cc43)cc2)CCC1 (single isomer, unassigned; (-)) [Example 119, (−)-1-(4-{2-[2-(4-Chloro-phenyl)-5,6-difluoro-benzoimidazol-1-yl]-2-cyclohexyl-ethoxy}-phenoxy)-cyclobutanecarboxylic acid] | 110 |

The next compounds have a lower IC50 than those just listed; values first:

| IC50 [nM] | Structure (SMILES) |
| --- | --- |
| 4 | Cc1cc(C(=O)O)cc(C)c1OCC(C1CCCCC1)n1c(-c2ccc(Cl)cc2)nc2cc(F)c(F)cc21 (single isomer, unassigned; (-)) [Example 55, (−)-4-{2-[2-(4-Chloro-phenyl)-5,6-difluoro-benzoimidazol-1-yl]-2-cyclohexyl-ethoxy}-3,5-dimethyl-benzoic acid] |
| 3 | O=C(O)c1cc(F)c(OCC(C2CCCCC2)n2c(-c3ccc(Cl)cc3)nc3cc(F)c(F)cc32)c(Cl)c1 (single isomer, unassigned; (-)) [Example 77, (−)-3-Chloro-4-{2-[2-(4-chloro-phenyl)-5,6-difluoro-benzoimidazol-1-yl]-2-cyclohexyl-ethoxy}-5-fluoro-benzoic acid] |
| 10 | Fc1cc2nc(-c3ccc(Cl)cc3)n(C(COc3ccc(-c4nnn[nH]4)cc3F)C3CCCCC3)c2cc1F (single isomer, unassigned; (-)) [Example 81, (−)-2-(4-Chloro-phenyl)-1-{1-cyclohexyl-2-[2-fluoro-4-(1H-tetrazol-5-yl)-phenoxy]-ethyl}-5,6-difluoro-1H-benzoimidazole] |
| 3 | O=C(O)c1cc(F)c(OCC(C2CCCCC2)n2c(-c3ccc(Cl)cc3)nc3cc(F)c(F)cc32)c(F)c1 (single isomer, unassigned; (-)) [Example 86, (−)-4-{2-[2-(4-Chloro-phenyl)-5,6-difluoro-benzoimidazol-1-yl]-2-cyclohexyl-ethoxy}-3,5-difluoro-benzoic acid] |
| 3 | CC(C)(Oc1ccc(-c2nnn[nH]2)cc1)C(C1CCCCC1)n1c(-c2ccc(Cl)cc2)nc2cc(F)c(F)cc21 (single isomer, unassigned; (-)) [Example 88, (−)-2-(4-Chloro-phenyl)-1-{1-cyclohexyl-2-methyl-2-[4-(1H-tetrazol-5-yl)-phenoxy]-propyl}-5,6-difluoro-1H-benzoimidazole] |
| 10 | CC(C)(Oc1ccc(C(=O)O)cc1)C(C1CCCCC1)n1c(-c2ccc(Cl)cc2)nc2cc(F)c(F)cc21 (single isomer, unassigned; (-)) [Example 89, (−)-4-{2-[2-(4-Chloro-phenyl)-5,6-difluoro-benzoimidazol-1-yl]-2-cyclohexyl-1,1-dimethyl-ethoxy}-benzoic acid] |
| 1 | COc1ccc(-c2nc3cc(F)c(F)cc3n2C(COc2c(F)cc(C(=O)O)cc2F)C2CCCCC2)c(OC)n1 (single isomer, unassigned; (-)) [Example 98, (−)-4-{2-Cyclohexyl-2-[2-(2,6-dimethoxy-pyridin-3-yl)-5,6-difluoro-benzoimidazol-1-yl]-ethoxy}-3,5-difluoro-benzoic acid] |
| 0.2 | COc1ccc(-c2nc3cc(F)c(F)cc3n2C(COc2c(C)cc(-c3nnn[nH]3)cc2C)C2CCCCC2)c(OC)n1 (single isomer, unassigned; (-)) [Example 101, (−)-1-{1-Cyclohexyl-2-[2,6-dimethyl-4-(1H-tetrazol-5-yl)-phenoxy]-ethyl}-2-(2,6-dimethoxy-pyridin-3-yl)-5,6-difluoro-1H-benzoimidazole] |
| 20 | O=C(O)C1(Oc2ccc(OCC(C3CCCCC3)n3c(-c4ccc(Cl)cc4)nc4cc(F)c(F)cc43)cc2)CC1 (single isomer, unassigned; (-)) [Example 121, (−)-1-(4-{2-[2-(4-Chloro-phenyl)-5,6-difluoro-benzoimidazol-1-yl]-2-cyclohexyl-ethoxy}-phenoxy)-cyclopropanecarboxylic acid] |
| 10 | Cc1cc(Cl)ccc1-c1nc2cc(F)c(F)cc2n1C(COc1c(F)cc(C(=O)O)cc1F)C1CCCCC1 (single isomer, unassigned; (-)) [Example 125, (−)-4-{2-[2-(4-Chloro-2-methyl-phenyl)-5,6-difluoro-benzoimidazol-1-yl]-2-cyclohexyl-ethoxy}-3,5-difluoro-benzoic acid] |
| 10 | O=C(O)c1cc(F)c(OCC(C2CCCCCC2)n2c(-c3ccc(Cl)cc3)nc3cc(F)c(F)cc32)c(F)c1 (single isomer, unassigned; (-)) [Example 132, (−)-4-{2-[2-(4-Chloro-phenyl)-5,6-difluoro-benzoimidazol-1-yl]-2-cycloheptyl-ethoxy}-3,5-difluoro-benzoic acid] |
| 3 | O=C(O)c1ccc(CCC(C2CCCCC2)n2c(-c3ccccc3)nc3cc(F)c(F)cc32)cc1 (single isomer, unassigned; (-)) [Example 143, (−)-4-[3-Cyclohexyl-3-(5,6-difluoro-2-phenyl-benzoimidazol-1-yl)-propyl]-benzoic acid] |

— patent US8088930B2, “Benzimidazole derivatives” (Hoffmann-La Roche Inc., priority 2008, dated 2012)
